Like-named read-outs stand apart in the source and are kept apart here.
Experiments:
HCC827 cells = assay: HCC827 cell viability, MTS assay; type: cell-based; details: Homo sapiens, 96-h incubation, read-out: IC50 (concentration which causes 50% of the cell death)
Method: HCC827 cell viability was examined by the MTS assay (Promega, Madison, Wis., USA). 1000 HCC827 cells in 100 μl RPMI1640 with 10% FBS medium were seeded in each well of a 96-well plate. After 96-h incubation with a test compound, the cells were further incubated with 20 μl of a MTS/PMS mixture (MTS/PMS ratio: 20:1) in each well of the 96-well plate for 2 h at 37° C. in a humidified incubator with 5% CO2 to allow viable cells to convert the tetrazolium salt (MTS) into formazan. The amount/concentration of formazan, which indicates the number of live cells, was determined by measuring its absorbance at 490 nm using a PerkinElmer Victor2 plate reader (PerkinElmer, Shelton, Conn., USA).

GST-EGFR-KD^WT = molecular target: T1, GST-EGFR-KD^WT (Homo sapiens, UniProt P00533); assay: EGFR kinase assay (Kinase-Glo); type: biochemical; details: 5 μM ATP, read-out: IC50 (concentration at which activity of 50% of EGFR is inhibited)
T1 construct: 50 ng GST-EGFR-KD^WT proteins; made in house
Method: Following incubation, 50 μl Kinase-Glo Plus Reagent (Promega) was added and the mixture was further incubated at 25° C. for 20 min.

GST-EGFR-KD^L858R/T790M = molecular target: T2, GST-EGFR-KD^L858R/T790M (Homo sapiens, UniProt P00533, L858R/T790M); assay: Double mutant EGFR kinase assay (Kinase-Glo); type: biochemical; details: 1 μM ATP, read-out: IC50 (concentration at which activity of 50% of mutant EGFR is inhibited)
T2 construct: residues from 696 to 1022 and with L858R/T790M; made in house; host or cells: Sf9 insect cells (baculovirus)
T2 sequence (P00533 696-1022 T790M/L858R): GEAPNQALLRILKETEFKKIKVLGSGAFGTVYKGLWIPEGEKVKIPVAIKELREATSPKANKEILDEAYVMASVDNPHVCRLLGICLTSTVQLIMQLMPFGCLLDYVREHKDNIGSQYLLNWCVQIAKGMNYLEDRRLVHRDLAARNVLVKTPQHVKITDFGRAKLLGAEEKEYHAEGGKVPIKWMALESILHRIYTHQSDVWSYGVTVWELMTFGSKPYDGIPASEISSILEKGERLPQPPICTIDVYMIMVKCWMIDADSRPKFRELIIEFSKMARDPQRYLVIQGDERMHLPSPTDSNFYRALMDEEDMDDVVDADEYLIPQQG
Method: Following incubation, 50 μL Kinase-Glo Plus Reagent (Promega) was added and the mixture was incubated at 25° C. for 20 min.

T1 sequence (P00533 712-979 limits assumed): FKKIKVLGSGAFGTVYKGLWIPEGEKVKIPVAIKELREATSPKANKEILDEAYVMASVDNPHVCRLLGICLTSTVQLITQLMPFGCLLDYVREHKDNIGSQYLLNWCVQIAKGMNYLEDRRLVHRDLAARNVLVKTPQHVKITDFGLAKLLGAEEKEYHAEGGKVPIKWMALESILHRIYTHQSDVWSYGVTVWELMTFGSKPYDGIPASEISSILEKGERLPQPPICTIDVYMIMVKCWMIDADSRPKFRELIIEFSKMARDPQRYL

| SMILES | IC50 (HCC827 cells) [nM] | IC50 (GST-EGFR-KD^WT; range given in mixed units) [nM] | IC50 (GST-EGFR-KD^L858R/T790M) [nM] | IC50 (GST-EGFR-KD^WT) [nM] |
| --- | --- | --- | --- | --- |
| OC[C@@H](Nc1ncnc2sc3c(c12)CCCC3)c1ccccc1 [Compound 1, S-2-phenyl-2-(5,6,7,8-tetrahydro-benzo[4,5]thieno[2,3-d]pyrimidin-4-ylamino)-ethanol] | 100 to 300 | 101 to 900 | – | – |
| OC[C@@H](Nc1ncnc2sc3c(c12)CCC3)c1ccccc1 [Compound 3] | 301 to 999 | – | – | – |
| Cc1sc2ncnc(N[C@H](CO)c3ccccc3)c2c1C [Compound 4, (S)-2-(5,6-dimethylthieno[2,3-d]pyrimidin-4-ylamino)-2-phenylethanol] | 301 to 999 | – | – | – |
| OC[C@@H](Nc1ncnc2sc(-c3ccccc3)cc12)c1ccccc1 [Compound 7] | – | 101 to 900 | – | – |
| OC[C@@H](Nc1ncnc2sc(-c3ccccc3)c(Cl)c12)c1ccccc1 [Compound 8] | – | 101 to 900 | – | – |
| C=CC(=O)N1CCc2c(sc3ncnc(N[C@H](CO)c4ccccc4)c23)C1 [Compound 12, 1-[4-(2-hydroxy-1-phenyl-ethylamino)-5,8-dihydro-6H-9-thia-1,3,7-triaza-fluoren-7-yl]-propenone] | 1 to 99 | – | 10 to 499 | < 59 |
| C=CC(=O)N1CCc2c(sc3ncnc(N[C@H](CO[Si](C)(C)C(C)(C)C)c4ccccc4)c23)C1 [Compound 15] | 301 to 999 | 101 to 900 | – | – |
| O=C(O)[C@@H](Nc1ncnc2sc3c(c12)CCCC3)c1ccccc1 [Compound 18] | – | 101 to 900 | – | – |
| O=C(O)[C@@H](Nc1ncnc2sc3c(c12)CCC3)c1ccccc1 [Compound 20] | – | 101 to 900 | – | – |
| O=C(O)[C@@H](Nc1ncnc2sc(-c3ccccc3)cc12)c1ccccc1 [Compound 22] | – | 101 to 900 | – | – |
| CC[C@@H](Nc1ncnc2sc3c(c12)CCCC3)c1ccccc1 [Compound 23] | 301 to 999 | 101 to 900 | – | – |
| OC[C@@H](Nc1ncnc2oc(-c3ccccc3)c(-c3ccccc3)c12)c1ccccc1 [Compound 31, S-2-(5,6-diphenyl-furo[2,3-d]pyrimidin-4-ylamino)-2-phenyl-ethanol] | 301 to 999 | 101 to 900 | – | – |
| COc1ccc(-c2c(-c3ccccc3)oc3ncnc(N[C@H](CO)c4ccccc4)c23)cc1 [Compound 35] | 100 to 300 | 101 to 900 | – | – |
| COc1ccc(-c2oc3ncnc(N[C@H](CO)c4ccccc4)c3c2-c2ccc(OC)cc2)cc1 [Compound 36] | – | – | – | 60 to 100 |
| CC(=O)Nc1ccc(-c2c(-c3ccccc3)oc3ncnc(N[C@H](CO)c4ccccc4)c23)cc1 [Compound 37] | 100 to 300 | – | – | 60 to 100 |
| CC(=O)Nc1cccc(-c2c(-c3ccccc3)oc3ncnc(N[C@H](CO)c4ccccc4)c23)c1 [Compound 38] | 100 to 300 | 101 to 900 | – | – |
| OC[C@@H](Nc1ncnc2oc(-c3ccccc3)c(-c3ccco3)c12)c1ccccc1 [Compound 40] | 301 to 999 | 101 to 900 | – | – |
| OC[C@@H](Nc1ncnc2oc(-c3ccccc3)c(-c3ccoc3)c12)c1ccccc1 [Compound 41] | 100 to 300 | 101 to 900 | – | – |
| CC(=O)OC[C@@H](Nc1ncnc2oc(-c3ccccc3)c(Br)c12)c1ccccc1 [Compound 44] | 301 to 999 | – | – | – |
| OC[C@@H](Nc1ncnc2oc(-c3ccccc3)c(Cl)c12)c1ccccc1 [Compound 45] | – | 101 to 900 | – | – |
| COC(=O)[C@@H](Nc1ncnc2oc(-c3ccccc3)c(-c3ccccc3)c12)c1ccccc1 [Compound 46] | 301 to 999 | – | – | – |

| SMILES | IC50 (HCC827 cells) [nM] | IC50 (GST-EGFR-KD^WT; range given in mixed units) [nM] | IC50 (GST-EGFR-KD^L858R/T790M) [nM] | IC50 (GST-EGFR-KD^WT) [nM] |
| --- | --- | --- | --- | --- |
| CCOC(=O)[C@@H](Nc1ncnc2oc(-c3ccccc3)c(-c3ccccc3)c12)c1ccccc1 [Compound 47] | 301 to 999 | – | – | – |
| O=C(O)[C@@H](Nc1ncnc2oc(-c3ccccc3)c(-c3ccccc3)c12)c1ccccc1 [Compound 50] | – | – | – | < 59 |
| O=C(O)[C@@H](Nc1ncnc2oc(-c3ccccc3)c(Br)c12)c1ccccc1 [Compound 53] | – | – | – | < 59 |
| CC[C@@H](Nc1ncnc2oc(-c3ccccc3)c(-c3ccccc3)c12)c1ccccc1 [Compound 54] | 301 to 999 | – | – | – |
| CC[C@@H](Nc1ncnc2oc(-c3ccccc3)cc12)c1ccccc1 [Compound 56] | 301 to 999 | – | – | – |
| O=C(O)/C=C\C(=O)N1CCc2c(sc3ncnc(N[C@H](CO)c4ccccc4)c23)C1 [Compound 61] | – | 101 to 900 | – | – |
| C=CS(=O)(=O)N1CCc2c(sc3ncnc(N[C@H](CO)c4ccccc4)c23)C1 [Compound 63] | 100 to 300 | – | 500 to 2500 | 60 to 100 |
| C=CC(=O)N1CCc2c(sc3ncnc(N[C@H](C)c4ccccc4)c23)C1 [Compound 64] | 1 to 99 | – | 500 to 2500 | < 59 |
| O=C(/C=C/CN1CCCCC1)N1CCc2c(sc3ncnc(N[C@H](CO)c4ccccc4)c23)C1 [Compound 65] | 1 to 99 | – | 500 to 2500 | < 59 |
| CCOC(=O)/C=C/C(=O)N1CCc2c(sc3ncnc(N[C@H](CO)c4ccccc4)c23)C1 [Compound 68] | 1 to 99 | – | – | – |
| C=CC(=O)Nc1ccc(-c2c(-c3ccccc3)oc3ncnc(N[C@H](CO)c4ccccc4)c23)cc1 [Compound 118, S—N-{4-[4-(2-Hydroxy-1-phenyl-ethylamino)-6-phenyl-furo[2,3-d]pyrimidin-5-yl]-phenyl}-acrylamide] | 301 to 999 | – | – | 60 to 100 |
| C=CC(=O)Nc1ccc(-c2nc3c(N[C@H](CO)c4ccccc4)ncnc3o2)cc1 [Compound 154] | – | 101 to 900 | – | – |
| CN(C)C/C=C/C(=O)N1CCc2c(sc3ncnc(N[C@H](CO[Si](C)(C)C(C)(C)C)c4ccccc4)c23)C1 [Compound 186] | 301 to 999 | – | – | 60 to 100 |
| CN(C)C/C=C/C(=O)N1CCc2c(sc3ncnc(N[C@H](CO)Cc4ccccc4)c23)C1 [Compound 192] | 1 to 99 | 101 to 900 | – | – |
| CN(C)C/C=C/C(=O)N1CCc2c(sc3ncnc(N[C@H](CCO)c4ccccc4)c23)C1 [Compound 194] | 1 to 99 | – | – | < 59 |
| CCN(CC)C/C=C/C(=O)N1CCc2c(sc3ncnc(N[C@H](CCO)c4ccccc4)c23)C1 [Compound 199] | – | – | – | < 59 |
| CC(C)NC/C=C/C(=O)N1CCc2c(sc3ncnc(N[C@H](C)c4ccccc4)c23)C1 [Compound 204] | 1 to 99 | 101 to 900 | – | – |
| C[C@@H](Nc1ncnc2sc3c(c12)CCN(C(=O)/C=C/CNc1ccccc1)C3)c1ccccc1 [Compound 206] | 301 to 999 | 101 to 900 | – | – |
| C[C@@H](Nc1ncnc2sc3c(c12)CCN(C(=O)/C=C/CN=[N+]=[N-])C3)c1ccccc1 [Compound 208] | 1 to 99 | – | – | < 59 |
| C[C@@H](Nc1ncnc2sc3c(c12)CCN(C(=O)/C=C/CN(C)C)C3)c1ccc(Br)cc1 [Compound 209] | 1 to 99 | – | – | < 59 |
| C[C@@H](Nc1ncnc2sc3c(c12)CCN(C(=O)/C=C/CNN1CCCCC1)C3)c1ccccc1 [Compound 212] | 1 to 99 | – | – | < 59 |

| SMILES | IC50 (HCC827 cells) [nM] | IC50 (GST-EGFR-KD^WT; range given in mixed units) [nM] | IC50 (GST-EGFR-KD^L858R/T790M) [nM] | IC50 (GST-EGFR-KD^WT) [nM] |
| --- | --- | --- | --- | --- |
| C[C@@H](Nc1ncnc2sc3c(c12)CCN(C(=O)/C=C/CN(C)CCO)C3)c1ccccc1 [Compound 213] | 1 to 99 | – | – | < 59 |
| CC(=O)OC/C=C/C(=O)N1CCc2c(sc3ncnc(N[C@H](C)c4ccccc4)c23)C1 [Compound 214] | 1 to 99 | – | – | < 59 |
| CCN(C/C=C/C(=O)N1CCc2c(sc3ncnc(N[C@H](C)c4ccccc4)c23)C1)CCO [Compound 216] | 1 to 99 | – | – | < 59 |
| CCC[C@@H](Nc1ncnc2sc3c(c12)CCN(C(=O)/C=C/CN(C)C)C3)c1ccccc1 [Compound 217] | 1 to 99 | – | – | < 59 |
| CN(C)C/C=C/C(=O)N1CCc2c(sc3ncnc(N[C@H](CCOCc4ccccc4F)c4ccccc4)c23)C1 [Compound 218] | 1 to 99 | – | – | < 59 |
| CN(C)C/C=C/C(=O)N1CCc2c(sc3ncnc(N[C@H](COCc4ccc(F)cc4)c4ccccc4)c23)C1 [Compound 219] | 1 to 99 | – | – | < 59 |
| C/C=C/C(=O)N1CCc2c(sc3ncnc(N[C@H](COCc4cccc(F)c4)c4ccccc4)c23)C1 [Compound 220] | – | – | – | 60 to 100 |
| CN(C)C/C=C/C(=O)N1CCc2c(sc3ncnc(N[C@H](COCc4ccncc4)c4ccccc4)c23)C1 [Compound 224] | 1 to 99 | – | – | < 59 |
| COC[C@@H](Nc1ncnc2sc3c(c12)CCN(C(=O)/C=C/CN(C)C)C3)c1ccccc1 [Compound 229] | 1 to 99 | – | – | < 59 |
| CCN(CC)C/C=C/C(=O)N1CCc2c(sc3ncnc(N[C@H](COC)c4ccccc4)c23)C1 [Compound 230] | 1 to 99 | – | – | 60 to 100 |
| CN(C)C/C=C/C(=O)N1CCc2c(sc3ncnc(N[C@H](COCc4cccnc4)c4ccccc4)c23)C1 [Compound 231] | 1 to 99 | – | – | < 59 |
| C=CC(=O)Nc1ccc(-c2c(-c3ccccc3)oc3ncnc(N[C@H](C)c4ccccc4)c23)cc1 [Compound 238] | 1 to 99 | 101 to 900 | – | – |
| C=CC(=O)Nc1cccc(-c2c(-c3ccccc3)oc3ncnc(N[C@H](COC(=O)C=C)c4ccccc4)c23)c1 [Compound 240] | – | 101 to 900 | 10 to 499 | – |
| CC#CC(=O)Nc1cccc(-c2c(-c3ccccc3)oc3ncnc(N[C@H](COC)c4ccccc4)c23)c1 [Compound 242] | – | 101 to 900 | – | – |
| C=CC(=O)Nc1cccc(-c2coc3ncnc(N[C@H](CO)c4ccccc4)c23)c1 [Compound 244] | 301 to 999 | – | – | 60 to 100 |
| C=CC(=O)Nc1cccc(-c2cc3c(N[C@H](CO)c4ccccc4)ncnc3s2)c1 [Compound 245] | 100 to 300 | – | – | < 59 |
| C=CC(=O)Nc1cccc(-c2csc3ncnc(N[C@H](CO)c4ccccc4)c23)c1 [Compound 246] | 1 to 99 | – | – | < 59 |
| C=CC(=O)Nc1cccc(-c2c(-c3ccccc3)oc3ncnc(N(C)C(COC)c4ccccc4)c23)c1 (stereo not drawn) [Compound 247] | – | 101 to 900 | – | – |
| COCCN(C)C/C=C/C(=O)N1CCc2c(sc3ncnc(N[C@H](CO)c4ccccc4)c23)C1 [Compound 327] | – | – | – | < 59 |

— US8507502B2, “Fused bicyclic and tricyclic pyrimidine compounds as tyrosine kinase inhibitors” (National Health Research Institutes, priority 2008, dated 2013)
